Test results reported in PubChem BioAssay AID248 (DTP/NCI, 2004).
Values joined by “and” are separate entries in the source; they are usually repeats but may differ in a detail not shown here. Identical values can stand only once. Toxic doses and inconclusive results are not listed. Rule as the data show it: active = T/C of 150% or more; inactive = T/C below 125%.

Tested on: L1210 leukemia ip in BDF1 mice, survival T/C
Assay: NCI In Vivo Anticancer Drug Screen. Data for tumor model L1210 Leukemia (intraperitoneal) in B6D2F1 (BDF1) mice
Details: endpoint: mean survival time, higher = longer survival
Method in brief: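 Transplanted-tumor mice were given test agent; controls received vehicle only. Survival readings from the two groups were divided (treated over control).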

[1] = dose: 100.0 mg/kg/injection, schedule: Q04DX003 (ip), vehicle: Klucel (hydroxypropylcellulose) (HPC)
[2] = dose: 100.0 mg/kg/injection, schedule: Q04DX002 (ip), vehicle: saline with Tween-80
[3] = dose: 200.0 mg/kg/injection, schedule: Q04DX002 (ip), vehicle: saline with Tween-80
[4] = dose: 400.0 mg/kg/injection, schedule: Q04DX002 (ip), vehicle: saline with Tween-80
[5] = dose: 100.0 mg/kg/injection, schedule: Q01DX001 (ip), vehicle: Klucel (hydroxypropylcellulose) (HPC)
[6] = dose: 200.0 mg/kg/injection, schedule: Q01DX001 (ip), vehicle: Klucel (hydroxypropylcellulose) (HPC)
[7] = dose: 100.0 mg/kg/injection, schedule: Q01DX001 (ip), vehicle: carboxymethylcellulose (CMC)
[8] = dose: 200.0 mg/kg/injection, schedule: Q01DX001 (ip), vehicle: carboxymethylcellulose (CMC)
[9] = dose: 400.0 mg/kg/injection, schedule: Q01DX001 (ip), vehicle: carboxymethylcellulose (CMC)
[10] = dose: 25.0 mg/kg/injection, schedule: Q04DX002 (ip), vehicle: Klucel (hydroxypropylcellulose) (HPC)
[11] = dose: 50.0 mg/kg/injection, schedule: Q04DX002 (ip), vehicle: Klucel (hydroxypropylcellulose) (HPC)
[12] = dose: 100.0 mg/kg/injection, schedule: Q04DX002 (ip), vehicle: Klucel (hydroxypropylcellulose) (HPC)
[13] = dose: 100.0 mg/kg/injection, schedule: Q01DX001 (ip), vehicle: saline
[14] = dose: 200.0 mg/kg/injection, schedule: Q01DX001 (ip), vehicle: saline
[15] = dose: 400.0 mg/kg/injection, schedule: Q01DX001 (ip), vehicle: saline
[16] = dose: 100.0 mg/kg/injection, schedule: Q04DX003 (ip), vehicle: saline
[17] = dose: 200.0 mg/kg/injection, schedule: Q04DX003 (ip), vehicle: saline
[18] = dose: 400.0 mg/kg/injection, schedule: Q04DX003 (ip), vehicle: saline
[19] = dose: 100.0 mg/kg/injection, schedule: Q01DX009 (ip), vehicle: saline
[20] = dose: 200.0 mg/kg/injection, schedule: Q01DX009 (ip), vehicle: saline
[21] = dose: 100.0 mg/kg/injection, schedule: Q01DX009 (ip), vehicle: saline with Tween-80
[22] = dose: 200.0 mg/kg/injection, schedule: Q01DX009 (ip), vehicle: saline with Tween-80

Measured: T/C

Cc1ccc(NC(=O)Nc2cc(C)on2)c([N+](=O)[O-])c1
inactive: dose: 25.0 mg/kg/injection, schedule: Q04DX003 (ip), vehicle: Klucel (hydroxypropylcellulose) (HPC) 96 % of control | dose: 50.0 mg/kg/injection, schedule: Q04DX003 (ip), vehicle: Klucel (hydroxypropylcellulose) (HPC) 96 % of control | [1] 100 % of control and 91 % of control

C1CCC2C(C1)CCCC2CCC1CCCC2CCCCC21 (stereo unspecified)
inactive: dose: 50.0 mg/kg/injection, schedule: Q04DX002 (ip), vehicle: saline with Tween-80 95 % of control | [2] 92 % of control | [3] 89 % of control | [4] 100 % of control

CC(=O)O[C@]1(C(C)=O)CC[C@H]2[C@@H]3C[C@H](F)C4=CC(=O)CC[C@]4(C)[C@H]3CC[C@@]21C
inactive: dose: 100.0 mg/kg/injection, schedule: Q01DX009 (ip), vehicle: Klucel (hydroxypropylcellulose) (HPC) 98 % of control | dose: 100.0 mg/kg/injection, schedule: Q04DX003 (ip), vehicle: other 93 % of control | dose: 200.0 mg/kg/injection, schedule: Q01DX009 (ip), vehicle: Klucel (hydroxypropylcellulose) (HPC) 97 % of control | dose: 200.0 mg/kg/injection, schedule: Q04DX003 (ip), vehicle: other 98 % of control | dose: 400.0 mg/kg/injection, schedule: Q01DX009 (ip), vehicle: Klucel (hydroxypropylcellulose) (HPC) 101 % of control | dose: 400.0 mg/kg/injection, schedule: Q04DX003 (ip), vehicle: other 100 % of control

CCOC(=O)c1[nH]c(-c2ccccc2)c(/C=N\O)c1-c1ccccc1
inactive: dose: 50.0 mg/kg/injection, schedule: Q01DX001 (ip), vehicle: Klucel (hydroxypropylcellulose) (HPC) 105 % of control | [5] 100 % of control | [6] 93 % of control

Cc1ccc(S(=O)(=O)OC2CCC(OS(=O)(=O)c3ccc(C)cc3)C3CCCCC23)cc1 (stereo unspecified)
inactive: [7] 88 % of control | [8] 90 % of control | [9] 88 % of control

CCOC=Nc1cc[n+]([O-])nc1C
inactive: dose: 43.75 mg/kg/injection, schedule: Q04DX002 (ip), vehicle: saline 104 % of control | dose: 87.5 mg/kg/injection, schedule: Q04DX002 (ip), vehicle: saline 104 % of control | dose: 175.0 mg/kg/injection, schedule: Q04DX002 (ip), vehicle: saline 104 % of control

O=C(CN1CCCCC1)Nc1ccc(S(=O)(=O)c2ccc([N+](=O)[O-])cc2)cc1
inactive: dose: 75.0 mg/kg/injection, schedule: Q01DX001 (ip), vehicle: saline 87 % of control

C=C(Br)CNC(=O)c1ccccc1
inactive: dose: 12.5 mg/kg/injection, schedule: Q01DX009 (ip), vehicle: Klucel (hydroxypropylcellulose) (HPC) 97 % of control | dose: 25.0 mg/kg/injection, schedule: Q01DX009 (ip), vehicle: Klucel (hydroxypropylcellulose) (HPC) 108 % of control | dose: 50.0 mg/kg/injection, schedule: Q01DX009 (ip), vehicle: Klucel (hydroxypropylcellulose) (HPC) 90 % of control | [5] 101 % of control | [6] 106 % of control

S=C1SC2CCCCC2S1 (stereo unspecified)
inactive: [10] 100 % of control | [11] 106 % of control | [12] 95 % of control | [1] 103 % of control | dose: 200.0 mg/kg/injection, schedule: Q04DX003 (ip), vehicle: Klucel (hydroxypropylcellulose) (HPC) 94 % of control | dose: 400.0 mg/kg/injection, schedule: Q04DX003 (ip), vehicle: Klucel (hydroxypropylcellulose) (HPC) 103 % of control

CCCCCCCC[Si](C)(C)C
inactive: [13] 100 % of control | [14] 97 % of control | [15] 115 % of control

c1ccn2nnc(-c3nnn4ccccc34)c2c1
inactive: [2] 102 % of control | [3] 95 % of control | [4] 91 % of control

Cc1c(C(=O)c2ccc3c(c2)OCO3)ccc2c1OCO2
inactive: [7] 100 % of control | [8] 100 % of control | [9] 96 % of control

CCOC(=O)CNc1ccc(F)c(C(F)(F)F)c1
inactive: dose: 100.0 mg/kg/injection, schedule: Q04DX002 (ip), vehicle: saline 95 % of control and 107 % of control | dose: 200.0 mg/kg/injection, schedule: Q04DX002 (ip), vehicle: saline 103 % of control and 92 % of control | dose: 400.0 mg/kg/injection, schedule: Q04DX002 (ip), vehicle: saline 110 % of control | dose: 600.0 mg/kg/injection, schedule: Q04DX002 (ip), vehicle: saline 95 % of control

O=C(CSc1ccc([N+](=O)[O-])cc1)c1ccc(Br)cc1
inactive: [13] 87 % of control | [16] 95 % of control | [14] 87 % of control | [17] 90 % of control | [15] 94 % of control | [18] 90 % of control

CC(=O)Nc1ccc(S(=O)(=O)NO)cc1
inactive: dose: 50.0 mg/kg/injection, schedule: Q01DX009 (ip), vehicle: saline 96 % of control | [19] 100 % of control | [16] 100 % of control | [20] 94 % of control | [17] 103 % of control | [18] 101 % of control

CCCCOc1ccc(OC(=O)Nc2cccc(C(F)(F)F)c2)cc1
inactive: [21] 96 % of control | [22] 94 % of control | dose: 400.0 mg/kg/injection, schedule: Q01DX009 (ip), vehicle: saline with Tween-80 94 % of control

CN1CCC(C[CH2][Sn]([c]2ccccc2)([c]2ccccc2)[c]2ccccc2)CC1
inactive: dose: 25.0 mg/kg/injection, schedule: Q04DX002 (ip), vehicle: saline with Tween-80 100 % of control

CCCCCCCCCCC[n+]1cccc(C#N)c1
inactive: dose: 5.0 mg/kg/injection, schedule: Q01DX009 (ip), vehicle: saline 101 % of control | dose: 10.0 mg/kg/injection, schedule: Q01DX001 (ip), vehicle: saline 94 % of control | dose: 10.0 mg/kg/injection, schedule: Q01DX009 (ip), vehicle: saline 93 % of control | dose: 10.0 mg/kg/injection, schedule: Q04DX003 (ip), vehicle: saline 98 % of control | dose: 20.0 mg/kg/injection, schedule: Q01DX001 (ip), vehicle: saline 101 % of control | dose: 20.0 mg/kg/injection, schedule: Q01DX009 (ip), vehicle: saline 95 % of control | dose: 20.0 mg/kg/injection, schedule: Q04DX003 (ip), vehicle: saline 93 % of control | dose: 40.0 mg/kg/injection, schedule: Q01DX001 (ip), vehicle: saline 108 % of control | dose: 40.0 mg/kg/injection, schedule: Q04DX003 (ip), vehicle: saline 95 % of control

CC(C)C(=O)Nc1cc(Cl)ccc1Cl
inactive: dose: 100.0 mg/kg/injection, schedule: Q01DX001 (ip), vehicle: other 94 % of control | dose: 200.0 mg/kg/injection, schedule: Q01DX001 (ip), vehicle: other 97 % of control | dose: 400.0 mg/kg/injection, schedule: Q01DX001 (ip), vehicle: other 92 % of control

CN(C)C(=O)c1cccc(NCc2ccc3nc(N)nc(N)c3c2)c1
inactive: dose: 50.0 mg/kg/injection, schedule: Q01DX009 (ip), vehicle: saline with Tween-80 93 % of control | [21] 96 % of control and 88 % of control | dose: 100.0 mg/kg/injection, schedule: Q04DX003 (ip), vehicle: saline with Tween-80 97 % of control | [22] 96 % of control | dose: 200.0 mg/kg/injection, schedule: Q04DX003 (ip), vehicle: saline with Tween-80 92 % of control | dose: 400.0 mg/kg/injection, schedule: Q04DX003 (ip), vehicle: saline with Tween-80 92 % of control

COc1ccc2c(c1)CSC(c1ccccc1)=C2
inactive: [10] 98 % of control | [11] 120 % of control | [12] 98 % of control

O=C(O)C1(Cl)C2(Cl)C(Cl)=CC3(Cl)C(Cl)(C(=O)O)C2(Cl)C31Cl (stereo unspecified)
inactive: dose: 50.0 mg/kg/injection, schedule: Q01DX001 (ip), vehicle: saline 108 % of control | [13] 103 % of control | [14] 101 % of control | [15] 97 % of control

COC(=O)C1=C(C(=O)OC)C2(O)c3ccccc3C1c1ccccc12
inactive: [19] 100 % of control | [20] 93 % of control | dose: 400.0 mg/kg/injection, schedule: Q01DX009 (ip), vehicle: saline 88 % of control
